Assay results reported in patent publication US9730944B2, “Antiviral activity of novel bicyclic heterocycles” (priority 2010, dated 2017).
Converted amounts (≈) assume the structure as drawn.

Key:
[1] = test system: hRV-2; assay: Rhinovirus type 2 antiviral assay in Hela Rh cells, MTS readout; format: cell-based, Human rhinovirus; settings: Rhinovirus A, HRV2, HeLa Rh, Hela Rh cells; read-out: hRV-2 EC50
[2] = test system: hRV-9; assay: Rhinovirus type 9 antiviral assay in Hela Rh cells, MTS readout; format: cell-based, Human rhinovirus; settings: Human rhinovirus sp., HRV9, HeLa Rh, Hela Rh cells; read-out: hRV-9 EC50
[3] = test system: hRV-14; assay: Rhinovirus type 14 antiviral assay in Hela Rh cells, MTS readout; format: cell-based, Human rhinovirus; settings: Rhinovirus B, HRV14, HeLa Rh, Hela Rh cells; read-out: hRV-14 EC50
[4] = test system: hRV-15; assay: Rhinovirus type 15 antiviral assay in Hela Rh cells, MTS readout; format: cell-based, Human rhinovirus; settings: Human rhinovirus sp., HRV15, HeLa Rh, Hela Rh cells; read-out: hRV-15 EC50
[5] = test system: hRV-29; assay: Rhinovirus type 29 antiviral assay in Hela Rh cells, MTS readout; format: cell-based; settings: Human rhinovirus sp., HRV29, HeLa Rh, Hela Rh cells; read-out: hRV-29 EC50
[6] = test system: hRV-39; assay: Rhinovirus type 39 antiviral assay in Hela Rh cells, MTS readout; format: cell-based, Human rhinovirus; settings: Human rhinovirus sp., HRV39, HeLa Rh, Hela Rh cells; read-out: hRV-39 EC50
[7] = test system: hRV-41; assay: Rhinovirus type 41 antiviral assay in Hela Rh cells, MTS readout; format: cell-based, Human rhinovirus; settings: Human rhinovirus sp., HRV41, HeLa Rh, Hela Rh cells; read-out: hRV-41 EC50
[8] = test system: hRV-42; assay: Rhinovirus type 42 antiviral assay in Hela Rh cells, MTS readout; format: cell-based, Human rhinovirus; settings: Human rhinovirus sp., HRV42, HeLa Rh, Hela Rh cells; read-out: hRV-42 EC50
[9] = test system: hRV-45; assay: Rhinovirus type 45 antiviral assay in Hela Rh cells, MTS readout; format: cell-based, Human rhinovirus; settings: Human rhinovirus sp., HRV45, HeLa Rh, Hela Rh cells; read-out: hRV-45 EC50
[10] = test system: hRV-63; assay: Rhinovirus type 63 antiviral assay in Hela Rh cells, MTS readout; format: cell-based, Human rhinovirus; settings: Human rhinovirus sp., HRV63, HeLa Rh, Hela Rh cells; read-out: hRV-63 EC50
[11] = test system: hRV-70; assay: Rhinovirus type 70 antiviral assay in Hela Rh cells, MTS readout; format: cell-based, Human rhinovirus; settings: Human rhinovirus sp., HRV70, HeLa Rh, Hela Rh cells; read-out: hRV-70 EC50
[12] = test system: hRV-72; assay: Rhinovirus type 72 antiviral assay in Hela Rh cells, MTS readout; format: cell-based, Human rhinovirus; settings: Human rhinovirus sp., HRV72, HeLa Rh, Hela Rh cells; read-out: hRV-72 EC50
[13] = test system: hRV-85; assay: Rhinovirus type 85 antiviral assay in Hela Rh cells, MTS readout; format: cell-based, Human rhinovirus; settings: Human rhinovirus sp., HRV85, HeLa Rh, Hela Rh cells; read-out: hRV-85 EC50
[14] = test system: hRV-86; assay: Rhinovirus type 86 antiviral assay in Hela Rh cells, MTS readout; format: cell-based, Human rhinovirus; settings: Human rhinovirus sp., HRV86, HeLa Rh, Hela Rh cells; read-out: hRV-86 EC50
[15] = Cytostatic/cytotoxic effect in Hela Rh cells (rhinovirus methodology, MTS); settings: human, CC50, Hela Rh cells

SMILES	EC50 [1] [µg/mL]	EC50 [2] [µg/mL]	EC50 [3] [µg/mL]	EC50 [4] [µg/mL]	EC50 [5] [µg/mL]	EC50 [6] [µg/mL]	EC50 [7] [µg/mL]	EC50 [8] [µg/mL]	EC50 [9] [µg/mL]	EC50 [10] [µg/mL]	EC50 [11] [µg/mL]	EC50 [12] [µg/mL]	EC50 [13] [µg/mL]	EC50 [14] [µg/mL]	CC50 [15] [µg/mL]
Nc1nc(N2CCN(C(=O)COc3ccc(Br)cc3)CC2)c2nc(-c3ccc(F)cc3)sc2n1 [Example 235, 1-(4-(5-amino-2-(4-fluorophenyl)thiazolo[5,4-d]pyrimidin-7-yl)piperazin-1-yl)-2-(4-bromophenoxy)ethanone]	< 0.02	< 0.02	0.04 (≈ 0.0736 µM)	< 0.02	< 0.02	< 0.02	< 0.39	< 0.39	< 0.39	< 0.39	< 0.39	0.65 (≈ 1.2 µM)	< 0.39	0.58 (≈ 1.07 µM)	> 50
COc1cccc(CCc2nc3c(N4CCN(C(=O)COc5ccc(Br)cc5)CC4)nc(N)nc3s2)c1 [Example 254, 1-(4-(5-amino-2-(3-methoxyphenethyl)thiazolo[5,4-d]pyrimidin-7-yl)piperazin-1-yl)-2-(4-bromophenoxy)ethanone]	1.3 (≈ 2.23 µM)	1.26 (≈ 2.16 µM)	1.23 (≈ 2.11 µM)	3.44 (≈ 5.9 µM)	1.27 (≈ 2.18 µM)	1.18 (≈ 2.02 µM)	13 (≈ 22.3 µM)	2.41 (≈ 4.13 µM)	4.87 (≈ 8.35 µM)	5.85 (≈ 10 µM)	4.77 (≈ 8.17 µM)	9.05 (≈ 15.5 µM)	3.99 (≈ 6.84 µM)	4.62 (≈ 7.92 µM)	> 50
COc1cccc(CCc2nc3c(N4CCN(C(=O)COc5ccc(Cl)cc5)CC4)nc(N)nc3s2)c1 [Example 255, 1-(4-(5-amino-2-(3-methoxyphenethyl)thiazolo[5,4-d]pyrimidin-7-yl)piperazin-1-yl)-2-(4-chlorophenoxy)ethanone]	0.65 (≈ 1.21 µM)	0.52 (≈ 0.965 µM)	0.53 (≈ 0.983 µM)	1.82 (≈ 3.38 µM)	0.6 (≈ 1.11 µM)	0.5 (≈ 0.928 µM)	20.8 (≈ 38.6 µM)	1.1 (≈ 2.04 µM)	2.34 (≈ 4.34 µM)	3.31 (≈ 6.14 µM)	4.02 (≈ 7.46 µM)	> 50	2.18 (≈ 4.04 µM)	2.61 (≈ 4.84 µM)	> 50
COc1ccc(CCc2nc3c(N4CCN(C(=O)COc5ccc(Br)cc5)CC4)nc(N)nc3s2)cc1OC [Example 256, 1-(4-(5-amino-2-(3,4-dimethoxyphenethyl)thiazolo[5,4-d]pyrimidin-7-yl)piperazin-1-yl)-2-(4-bromophenoxy)ethanone]	2.07 (≈ 3.37 µM)	4.05 (≈ 6.6 µM)	2.81 (≈ 4.58 µM)	> 50	4.06 (≈ 6.62 µM)	1.8 (≈ 2.93 µM)	> 50	5.22 (≈ 8.51 µM)	> 50	32.9 (≈ 53.6 µM)	5.97 (≈ 9.73 µM)	6.89 (≈ 11.2 µM)	9.48 (≈ 15.5 µM)	4.86 (≈ 7.92 µM)	> 50
COc1ccc(OCC(=O)N2CCN(c3nc(N)nc4sc(CCc5ccc(OC)c(OC)c5)nc34)CC2)cc1 [Example 257, 1-(4-(5-amino-2-(3,4-dimethoxyphenethyl)thiazolo[5,4-d]pyrimidin-7-yl)piperazin-1-yl)-2-(4-methoxyphenoxy)ethanone]	3.01 (≈ 5.33 µM)	3.69 (≈ 6.53 µM)	2.32 (≈ 4.11 µM)	46.2 (≈ 81.9 µM)	14.9 (≈ 26.3 µM)	2.26 (≈ 4 µM)	31.1 (≈ 55.1 µM)	5.09 (≈ 9.01 µM)	30.8 (≈ 54.6 µM)	26.4 (≈ 46.8 µM)	7.1 (≈ 12.6 µM)	5.95 (≈ 10.5 µM)	8.05 (≈ 14.3 µM)	4.79 (≈ 8.48 µM)	> 50
Cc1ccc(CCc2nc3c(N4CCN(C(=O)COc5ccc(Br)cc5)CC4)nc(N)nc3s2)cc1 [Example 258, 1-(4-(5-amino-2-(4-methylphenethyl)thiazolo[5,4-d]pyrimidin-7-yl)piperazin-1-yl)-2-(4-bromophenoxy)ethanone]	9.58 (≈ 16.9 µM)	> 50	> 50	> 50	> 50	13 (≈ 22.9 µM)	> 50	> 50	35.4 (≈ 62.3 µM)	34 (≈ 60 µM)	> 50	> 50	8.33 (≈ 14.7 µM)	> 50	46.2 (≈ 81.5 µM)
Nc1nc(N2CCN(C(=O)COc3ccc(Cl)cc3)CC2)c2nc(CCCc3ccc(F)cc3)sc2n1 [Example 290, 1-(4-(5-amino-2-(3-(4-fluorophenyl)propyl)thiazolo[5,4-d]pyrimidin-7-yl)piperazin-1-yl)-2-(4-chlorophenoxy)ethanone]	49.2 (≈ 91 µM)	> 50	> 50	> 50	> 50	> 50	> 50	> 50	> 50	> 50	> 50	> 50	19.4 (≈ 35.8 µM)	> 50	> 50
Nc1nc(N2CCN(C(=O)COc3ccc(Cl)cc3)CC2)c2nc(CCCCc3ccc(F)cc3)sc2n1 [Example 292, 1-(4-(5-amino-2-(4-(4-fluorophenyl)butyl)thiazolo[5,4-d]pyrimidin-7-yl)piperazin-1-yl)-2-(4-chlorophenoxy)ethanone]	13.6 (≈ 24.6 µM)	> 50	> 50	> 50	> 50	39.4 (≈ 70.9 µM)	> 50	> 50	> 50	> 50	> 50	> 50	10.3 (≈ 18.6 µM)	> 50	> 50
COc1ccc(OCC(=O)N2CCN(c3nc(N)nc4sc(CCCCc5ccc(F)cc5)nc34)CC2)cc1 [Example 293, 1-(4-(5-amino-2-(4-(4-fluorophenyl)butyl)thiazolo[5,4-d]pyrimidin-7-yl)piperazin-1-yl)-2-(4-methoxyphenoxy)ethanone]	12.4 (≈ 22.5 µM)	> 50	> 50	> 50	> 50	> 50	> 50	> 50	35.4 (≈ 64.2 µM)	21.2 (≈ 38.4 µM)	> 50	> 50	11.5 (≈ 20.9 µM)	> 50	> 50
CCCCCc1nc2c(N3CCN(C(=O)COc4ccc(OC)cc4)CC3)nc(N)nc2s1 [Example 296, 1-(4-(5-amino-2-pentylthiazolo[5,4-d]pyrimidin-7-yl)piperazin-1-yl)-2-(4-methoxyphenoxy)ethanone]	0.19 (≈ 0.404 µM)	0.2 (≈ 0.425 µM)	9.93 (≈ 21.1 µM)	0.44 (≈ 0.935 µM)	0.09 (≈ 0.191 µM)	0.04 (≈ 0.085 µM)	7.02 (≈ 14.9 µM)	4.25 (≈ 9.03 µM)	4.13 (≈ 8.78 µM)	0.71 (≈ 1.51 µM)	2.53 (≈ 5.38 µM)	26.5 (≈ 56.3 µM)	0.64 (≈ 1.36 µM)	17.8 (≈ 37.7 µM)	> 50
COc1ccc(OCC(=O)N2CCN(c3nc(N)nc4sc(CCc5ccc(Br)cc5)nc34)CC2)cc1 [Example 298, 1-(4-(5-amino-2-(4-bromophenethyl)thiazolo[5,4-d]pyrimidin-7-yl)piperazin-1-yl)-2-(4-methoxyphenoxy)ethanone]	0.45 (≈ 0.771 µM)	0.55 (≈ 0.943 µM)	1.23 (≈ 2.11 µM)	1.61 (≈ 2.76 µM)	0.89 (≈ 1.53 µM)	0.45 (≈ 0.771 µM)	10.4 (≈ 17.8 µM)	1.2 (≈ 2.06 µM)	4.56 (≈ 7.81 µM)	3.9 (≈ 6.68 µM)	4.71 (≈ 8.07 µM)	6.52 (≈ 11.2 µM)	2.21 (≈ 3.79 µM)	4.58 (≈ 7.85 µM)	> 50
CC(C)(C)OC(=O)N[C@@H]1CCN(c2nc(N)nc3sc(-c4ccc(F)cc4)cc23)C1 [Example 338, (R)-tert-butyl 1-(2-amino-6-(4-fluorophenyl)thieno[2,3-d]pyrimidin-4-yl)pyrrolidin-3-ylcarbamate]	0.37 (≈ 0.861 µM)	0.78 (≈ 1.82 µM)	1.11 (≈ 2.58 µM)	1.52 (≈ 3.54 µM)	0.39 (≈ 0.908 µM)	0.38 (≈ 0.885 µM)	27.4 (≈ 63.7 µM)	5.65 (≈ 13.2 µM)	4.23 (≈ 9.85 µM)	8.43 (≈ 19.6 µM)	3.65 (≈ 8.5 µM)	4.96 (≈ 11.5 µM)	2.17 (≈ 5.05 µM)	2.37 (≈ 5.52 µM)	> 50
